Where a name gives a salt, the structure may show the parent alone.
System: A. baumannii S 226 strain producing CHDL Oxacillinases (OXA 51, OXA-23)
Assay: Time-kill study: viable bacterial count in Mueller Hinton broth
Format: cell-based, Acinetobacter baumannii
Conditions: for Bacterial count: initial count 6.62 log CFU/ml
Method: The antibacterial activity of compositions according to the invention against various bacterial strains was investigated. In a typical study, freshly grown cultures were diluted to required cell density (initial starting inoculum) in Mueller Hinton broth medium (BD, USA). The antibacterial agents, either alone or in combination, at required concentrations were added into the medium containing the desired initial starting inoculum. The samples were incubated under shaking condition (120 rpm) at 37° C. Enumeration of viable bacterial count was undertaken, every 2 hours, by diluting in normal saline and plating on to the Tryptic Soya Agar plates (BD, USA). The plates were incubated for 24 hours to arrive at the viable bacterial count. The antibacterial activity is expressed in terms of Colony Forming Units (CFU). The decrease of 1 Log CFU/ml, after administration of combination of present invention, in comparison to initial bacterial count corresponds to 90% killing of bacteria. Similarly, 2 Log CFU/ml reductions corresponds to 99% killing of bacteria and 3 Log CFU/ml reductions is equal to 99.9% killing of bacteria.
The combination according to invention was tested against highly resistant A. baumannii S 226 strain producing Carbapenem hydrolyzing (CHDL) Oxacillinases [OXA-51, OXA-23]. The assay without any antibacterial agent was taken as control.

[1] = 2 hours, active ingredient alone at 8 mcg/ml
[2] = 4 hours, active ingredient alone at 8 mcg/ml
[3] = 6 hours, active ingredient alone at 8 mcg/ml
[4] = 8 hours, active ingredient alone at 8 mcg/ml
[5] = 24 hours, active ingredient alone at 8 mcg/ml

C[C@@H](O)[C@H]1C(=O)N2C(C(=O)O)=C(S[C@@H]3CN[C@H](CNS(N)(=O)=O)C3)[C@H](C)[C@H]12 [Doripenem]
Bacterial count [1]: 7.95 Log10 CFU/ml | Bacterial count [2]: 8.08 Log10 CFU/ml | Bacterial count [3]: 8.12 Log10 CFU/ml | Bacterial count [4]: 8.50 Log10 CFU/ml | Bacterial count [5]: 8.30 Log10 CFU/ml | decrease of the bacterial count of A. baumannii throughout the duration of the study (used alone at 8 mcg/ml): failed to decrease the bacterial count

C[C@@H](O)[C@H]1C(=O)N2C(C(=O)O)=C(SCCN=CN)C[C@H]12 [Imipenem]
Bacterial count [1]: 7.46 Log10 CFU/ml | Bacterial count [2]: 8.26 Log10 CFU/ml | Bacterial count [3]: 8.43 Log10 CFU/ml | Bacterial count [4]: 8.52 Log10 CFU/ml | Bacterial count [5]: 8.74 Log10 CFU/ml

C[C@@H](O)[C@H]1C(=O)N2C(C(=O)O)=C(S[C@@H]3CN[C@H](C(=O)N(C)C)C3)[C@H](C)[C@H]12 [Meropenem]
Bacterial count [1]: 8.00 Log10 CFU/ml | Bacterial count [2]: 8.34 Log10 CFU/ml | Bacterial count [3]: 8.45 Log10 CFU/ml | Bacterial count [4]: 8.65 Log10 CFU/ml | Bacterial count [5]: 8.70 Log10 CFU/ml | decrease of the bacterial count of A. baumannii throughout the duration of the study (used alone at 8 mcg/ml): failed to decrease the bacterial count

N#C[C@@H]1CC[C@@H]2CN1C(=O)N2OS(=O)(=O)O [Sodium salt of a compound of Formula (I), sodium salt of sulphuric acid, mono[(1R,2S,5R)-2-cyano-7-oxo-1,6-diazabicyclo[3.2.1]oct-6-yl] ester]
Bacterial count (2 hours, active ingredient alone at 4 mcg/ml): 7.93 Log10 CFU/ml | Bacterial count (4 hours, active ingredient alone at 4 mcg/ml): 7.95 Log10 CFU/ml | Bacterial count (6 hours, active ingredient alone at 4 mcg/ml): 8.20 Log10 CFU/ml | Bacterial count (8 hours, active ingredient alone at 4 mcg/ml): 8.50 Log10 CFU/ml | Bacterial count (24 hours, active ingredient alone at 4 mcg/ml): 8.60 Log10 CFU/ml | decrease of the bacterial count of A. baumannii throughout the duration of the study (used alone at 4 mcg/ml): failed to decrease the bacterial count
